# Paper PMC8998904, “Identification and New Indication of Melanin-Concentrating Hormone Receptor 1 (MCHR1) Antagonist Derived from Machine Learning and Transcriptome-Based Drug Repositioning Approaches” (International Journal of Molecular Sciences, 2022)
# Key:
# [1] = biological target: T1, hERG channel (Homo sapiens, UniProt Q12809); assay: Patch clamp assay on HEK293-hERG cells; type: cell-based
# T1 construct: host or cells: HEK293
# Description: An in vitro time-resolved fluorescence (TRF)-based binding assay for MCHR1 was performed to identify the MCHR1 antagonist from the 19 predicted compounds selected through in silico screening. […] In addition, a patch clamp assay was performed to measure the cardiotoxicity of the five compounds. […] Consequently, of the five compounds, only KRX-104130 and KRX-104165 overcame cardiotoxicity.
# Patch clamp assays were performed on HEK293 cells stably expressing the hERG channel (HEK293-hERG cells; Genionics, Switzerland). When the cells were more than 80% confluent, they were freshly dislodged from flasks with 0.05% trypsin–EDTA for 1–2 min, spun down twice at 700× g, suspended into the extracellular solution (in mmol/L at 1.8 × 10^6 per mL: 137 NaCl, 4 KCl, 1 MgCl2, 1.8 CaCl2, 10 HEPES, and 10 glucose, pH 7.4, adjusted with NaOH), and dispensed into a patch clamp plate. The cell density was adjusted to 2–3 × 10^5 cells/mL. After dispensing, the cells were applied to the AutoPatch system (PatchXpress 7000A, Molecular Devices, Sunnyvale, CA, USA). The hERG currents were evoked by two voltage pulses at 3 s interval. The voltage pulse consisted of a 100-ms step to −30 mV, a conditioning prepulse (2 s duration, +25 mV or +45 mV), followed by a test pulse (2 s duration, −30 mV) from a holding potential of −70 mV. After a 3 s interval at −70 mV, a second pulse protocol was applied, consisting of a 100-ms step to −30 mV, a prepulse (2 s duration, +45 mV), followed by a test pulse (2 s duration, −30 mV). Leak currents were linearly subtracted, extrapolating the current elicited by a 100-ms step to −80 mV from a holding potential of −70 mV. The experiment was initiated with a buffer control in the absence of the drug to calculate the IC50. The test compound was applied at low to high concentrations, and the tail current was monitored continuously. The compound effects were tested using six concentrations in three-fold dilutions from 1 to 300 µM.
# [2] = tested on: A375, A549, MCF7 and PC3 cells; assay: mRNA gene expression (transcriptome, DEG) analysis in four cell lines; type: cell-based, human; conditions: 10 μM, 6 h; common gene of four cell lines
# Description: Transcriptome analysis was performed to identify new indications of KRX-104130. For each of the four cell lines, human skin malignant melanoma cells (A375), human lung carcinoma cells (A549), human breast carcinoma cells (MCF7), and human prostate adenocarcinoma cells (PC3), 10 μM of KRX-104130 was administered for 6 h in the control and treatment groups. As an independent experiment was performed three times, considering the error, the average value was used for comparison. The change in gene expression levels was calculated by dividing the […]. Fold change (FC) was expressed as a positive or negative value when the gene expression value of the treatment group was greater or lower than that of the control group, respectively.
# Four cell lines were used for the cell culture: A375, A549, MCF7, and PC3, purchased from the American Type Culture Collection (ATCC, Rockville, MD, USA). The A375 and A549 cells were cultured in RPMI-1640 medium supplemented with 10% fetal bovine serum (FBS) and 1% penicillin-streptomycin-glutamine. The MCF7 cells were cultured in Dulbecco’s modified Eagle’s medium (DMEM) with 10% FBS and 1% penicillin-streptomycin-glutamine. The PC3 cells were cultured in RPMI with 10% FBS, 1% penicillin-streptomycin-glutamine, 1 mM sodium pyruvate, and 10 mM HEPES. KRX-104130 was synthesized at the Research Center for Medicinal Chemistry, Korea Research Institute of Chemical Technology (KRICT, Daejeon, Korea).
# After releasing the stock, the cells were used in the experiments and cultured for two weeks to stabilize. KRX-104130 was dissolved in dimethylsulfoxide (DMSO) to form a 10 mM stock solution and stored in a deep freezer (−80 °C). Six sheets were seeded in each of the four cell lines, three sheets of DMSO and KRX-104130 (DMSO × 3 and KRX-104130 × 3), and they were stored in an incubator for 24 h. Cells were plated at 1.1375 × 10^6 cells for A375, 1.3 × 10^6 cells for A549, 8.45 × 10^5 cells for MCF7, and 1.496 × 10^6 cells for PC3 under the culture conditions. After 24 h, DMSO and KRX-104130 were diluted 1000-fold in the medium, and the cells were treated with a final concentration of 0.1% DMSO and 10 μM KRX-104130. After 6 h, the medium was removed, and the cells were collected by treatment with 1 mL of TRIzol. After destroying the cells by pipetting, they were stored in a deep freezer (−80 °C).
# The total RNA samples were assessed using the Clariom™ S Assay Human Platform. cDNA was synthesized using the GeneChip WT (Whole Transcript) Amplification Kit as described by the manufacturer. The sense cDNA was then fragmented and biotin-labeled with terminal deoxynucleotidyl transferase (TdT) using the GeneChip WT Terminal labeling kit. Approximately 5.5 μg of labeled DNA target was hybridized to the Affymetrix GeneChip Array at 45 °C for 16 h. The hybridized arrays were washed and stained on a GeneChip Fluidics Station 450 and scanned using a GCS3000 scanner. Probe cell intensity data computation and CEL file generation were performed using Affymetrix® GeneChip Command Console® Software version 6.0+ (AGCC, www.thermofisher.com/kr/ko/home/life-science/microarray-analysis/microarray-analysis-instruments-software-services/microarray-analysis-software/affymetrix-genechip-command-console-software.html, accessed on 1 September 2021). The CEL file is a binary format that contains the intensity calculated result for the pixel values of the DAT file and is used to extract normalized intensity to be used for actual analysis in Affymetrix® Power Tools version 2.11.4 (APT, www.thermofisher.com/kr/en/home/life-science/microarray-analysis/microarray-analysis-partners-programs/affymetrix-developers-network/affymetrix-power-tools.html, accessed on 1 September 2021). […]
# T1 sequence (Q12809 whole entry): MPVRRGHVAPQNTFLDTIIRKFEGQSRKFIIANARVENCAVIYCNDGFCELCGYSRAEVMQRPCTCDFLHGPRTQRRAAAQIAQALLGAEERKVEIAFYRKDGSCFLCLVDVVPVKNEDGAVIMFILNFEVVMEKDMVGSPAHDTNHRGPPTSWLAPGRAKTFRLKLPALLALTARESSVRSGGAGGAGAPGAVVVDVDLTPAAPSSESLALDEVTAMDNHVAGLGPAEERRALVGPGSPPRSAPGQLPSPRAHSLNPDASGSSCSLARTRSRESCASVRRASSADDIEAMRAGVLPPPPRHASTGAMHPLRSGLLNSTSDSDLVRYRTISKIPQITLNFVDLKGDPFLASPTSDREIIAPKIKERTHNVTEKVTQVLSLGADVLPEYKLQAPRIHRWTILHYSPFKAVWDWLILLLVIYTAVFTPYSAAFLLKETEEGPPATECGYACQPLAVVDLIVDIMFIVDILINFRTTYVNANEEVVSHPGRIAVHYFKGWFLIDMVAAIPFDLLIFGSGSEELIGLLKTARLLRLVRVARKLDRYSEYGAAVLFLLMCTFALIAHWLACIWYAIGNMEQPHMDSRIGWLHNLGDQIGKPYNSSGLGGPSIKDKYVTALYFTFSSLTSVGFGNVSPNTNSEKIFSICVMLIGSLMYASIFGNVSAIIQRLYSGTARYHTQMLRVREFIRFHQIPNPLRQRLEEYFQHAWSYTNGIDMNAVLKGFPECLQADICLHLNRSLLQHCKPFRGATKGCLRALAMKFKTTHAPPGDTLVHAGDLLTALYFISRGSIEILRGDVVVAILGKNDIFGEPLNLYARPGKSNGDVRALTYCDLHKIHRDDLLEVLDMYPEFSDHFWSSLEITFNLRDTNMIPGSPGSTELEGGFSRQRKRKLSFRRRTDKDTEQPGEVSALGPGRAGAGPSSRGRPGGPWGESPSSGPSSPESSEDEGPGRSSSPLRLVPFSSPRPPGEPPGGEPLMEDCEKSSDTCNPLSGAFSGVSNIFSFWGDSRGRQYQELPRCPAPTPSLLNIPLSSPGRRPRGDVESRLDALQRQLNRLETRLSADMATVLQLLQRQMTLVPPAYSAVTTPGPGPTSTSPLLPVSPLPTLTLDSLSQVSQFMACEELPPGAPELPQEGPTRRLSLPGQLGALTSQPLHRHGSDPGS
smiles,measurement,setting,value
COc1nc2cc(F)c(F)cc2nc1NC(=O)NC1CCN(Cc2cc3ccccc3[nH]2)CC1 [KRX-104130],IC50,[1],13 µM
same,Fold change (FC) CCNE2,[2],−1.96
same,Fold change (FC) DNAJB9,[2],3.50
same,Fold change (FC) HERPUD1,[2],3.17
same,Fold change (FC) HSD17B7,[2],2.22
same,Fold change (FC) INSIG1,[2],2.85
same,Fold change (FC) LDLR,[2],2.79
same,Fold change (FC) MSMO1,[2],3.09
same,Fold change (FC) TIPARP,[2],3.98
